We go through one compound from patent publication US11274332B2, “Methods of administering 3,4-diaminopyridine” (SERB SA, priority 2011, dated 2022).

This data set relates to rat hepatocytes. The data set can be described thus: In vitro metabolism of 14C-amifampridine in rat hepatocytes (Example 1). Format: in vitro ADME. The procedure: The objective of this hepatocyte study was to determine the extent of metabolism, complete metabolic profile and metabolite characterization of amifampridine phosphate in several species with ^14C-amifampridine phosphate for a cross species comparison. The following procedures were used to study the metabolism in rat (Example 1), dog (Example 2), and human hepatocytes (Example 3).
The cryopreserved hepatocytes were removed from storage, quickly thawed in a 37° C. water bath for 1 to 2 min, and transferred to a 50 ml tube containing pre-warmed InVitroGRO HT medium (Celsis Inc., Baltimore). The cell suspension was mixed by gentle inversion and the cells were pelleted by centrifugation at 50 to 75×g for 5 min. The supernatant medium was removed and the cells were resuspended in Williams' Medium E. Hepatocyte viability was assessed by using trypan blue exclusion. Hepatocyte density was determined by counting cells with a hemocytometer and the density was adjusted with Williams' Medium E to achieve a final density of 1,000,000 cells/mL. […] The supernatant medium was removed and the cells were resuspended in cold Williams' Medium E. The cell density was then determined using a hemocytometer and the density was adjusted with Williams' Medium E to achieve a final density of 1,000,000 cells/mL. […]

In the case of `Nc1ccncc1N` [3,4-DAP, 3,4-diaminopyridine], the “formation of single major acetylated amifampridine metabolite” value is “extensive”.
